These are literature values, as cited in patent US8247571B2, “Pyridinium and thiazolium conjugates including polyethylene glycols and methods of using the same” (Mycosol, Inc., priority 2005, dated 2012).

The subject of the series is roundworms, threadworms, and whipworms. The following applies: reported; U.S. Pat. Nos. 3,075,975 and 3,085,935.

For `CC[n+]1c(/C=C/c2ccc(N3CCCC3)cc2)cccc1/C=C/c1ccc(N2CCCC2)cc1.[I-]` [Stilbazium iodide], the anthelmintic effectiveness entry is recorded as “effective”.
